In PubChem BioAssay (NCI):
Several values for one entry are separate records, joined by “and”; a condition that tells them apart may be missing. Equal values may be shown once.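 How tested: cells in 96-well plates exposed to compound for 48 hours at five concentrations. The concentration for 50% growth inhibition is given as GI50. TGI marks complete inhibition of growth.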

Experiments:
Assay in all cases: growth of human tumour cells (NCI), 48 h
HCC-2998 colon = tested on: HCC-2998 colon
LOX IMVI melanoma = tested on: LOX IMVI melanoma
MDA-MB-231 breast = tested on: MDA-MB-231 breast
PC-3 prostate = tested on: PC-3 prostate
SF-268 CNS = tested on: SF-268 CNS
SF-295 CNS = tested on: SF-295 CNS
SF-539 CNS = tested on: SF-539 CNS
SK-MEL-5 melanoma = tested on: SK-MEL-5 melanoma
SN12C renal = tested on: SN12C renal
T-47D breast = tested on: T-47D breast

| SMILES | GI50 (HCC-2998 colon) | TGI (HCC-2998 colon) | GI50 (LOX IMVI melanoma) | TGI (LOX IMVI melanoma) | GI50 (MDA-MB-231 breast) | TGI (MDA-MB-231 breast) | GI50 (PC-3 prostate) | TGI (PC-3 prostate) | GI50 (SF-268 CNS) | TGI (SF-268 CNS) | GI50 (SF-295 CNS) | TGI (SF-295 CNS) | GI50 (SF-539 CNS) | TGI (SF-539 CNS) | GI50 (SK-MEL-5 melanoma) | TGI (SK-MEL-5 melanoma) | GI50 (SN12C renal) | TGI (SN12C renal) | GI50 (T-47D breast) | TGI (T-47D breast) |
| --- | --- | --- | --- | --- | --- | --- | --- | --- | --- | --- | --- | --- | --- | --- | --- | --- | --- | --- | --- | --- |
| CCOc1cc(C(C)(C)C)ccc1C1=N[C@@](C)(c2ccc(Cl)cc2)[C@@](C)(c2ccc(Cl)cc2)N1C(=O)N1CCN(CCS(C)(=O)=O)CC1 | 2.28 µM | 4.98 µM | 1.17 µM | 3.6 µM | 2.31 µM | 7.61 µM | 2.01 µM | 6.25 µM | 3.82 µM | 17.4 µM | 3.15 µM | 10.5 µM | 2.32 µM | 6.16 µM | 1.38 µM | 2.73 µM | 3.31 µM | 12.8 µM | 3.7 µM | 57.3 µM |
| O=C1c2ccccc2-c2c1c1ccccc1c(=O)n2-c1ccccc1 | – | > 100 µM | – | > 100 µM | – | 32.4 µM | – | > 100 µM | – | 52.7 µM | – | 23.6 µM | – | 12.3 µM | – | 52 µM | – | > 100 µM | – | 46.7 µM |
| N#Cc1c2c(c(-c3cccs3)n(C3OC(CO)C(O)C(O)C3O)c1=S)CCc1ccccc1-2 (centres undefined) | – | > 100 µM | – | > 100 µM | 15.5 µM and 37.3 µM | > 100 µM | – | > 100 µM | > 100 µM | > 100 µM | – | > 100 µM | – | > 100 µM | 6.47 µM and 28.4 µM | > 100 µM | – | > 100 µM | > 25.1 µM and 7.83 µM | > 100 µM |
| CC[C@H](NC(=O)[C@H](CS(=O)(=O)CC1CC1)N[C@@H](c1ccc(F)cc1)C(F)(F)F)C(=O)C(=O)NC1CC1 | > 100 µM | > 100 µM | > 100 µM | > 100 µM | 93.1 µM | > 100 µM | > 100 µM | > 100 µM | > 100 µM | > 100 µM | > 100 µM | > 100 µM | > 100 µM | > 100 µM | > 100 µM | > 100 µM | > 100 µM | > 100 µM | > 100 µM | > 100 µM |
| O=c1c2c3c(sc2n2c(-c4ccc(Br)cc4)nnc2n1Cc1ccccc1)CCCC3 | 3.25 µM | 13.4 µM | 10.5 µM | 22.3 µM | 3.39 µM | 16.6 µM | 2.97 µM | 16.6 µM | 7.44 µM | 21.1 µM | 2.42 µM | 7.51 µM | 11.9 µM | 32.3 µM | 3.8 µM | 14.3 µM | 8.01 µM | 23.4 µM | 4.42 µM | 16.8 µM |
| COc1ccc(NC(=O)/C=C(C)/C=C/C=C(C)\C=C\C2=C(C)CCCC2(C)C)cc1 | > 100 µM | > 100 µM | 32 µM | > 100 µM | 5.21 µM | 59 µM | 72.6 µM | > 100 µM | > 100 µM | > 100 µM | 35.7 µM | > 100 µM | 48.8 µM | > 100 µM | 40.9 µM | > 100 µM | 97.3 µM | > 100 µM | 3.79 µM | 43.1 µM |
| Cn1ncc(-c2ccc3c(=O)[nH]nc(CN)c3c2)c1-c1c(F)cc2ccccc2c1C#N | 8.63 µM | 20.8 µM | 1.32 µM | 4.11 µM | 8.53 µM | 23.4 µM | 8.21 µM | 23.6 µM | 4.74 µM | 20.6 µM | 11.7 µM | 24.6 µM | 7.6 µM | 20.8 µM | 11 µM | 22.9 µM | 7.53 µM | 20.8 µM | 3.48 µM | 17.6 µM |
| CC1(C)[C@@H](OC(N)=O)C=C[C@]2(C=O)[C@H]3CC[C@]4(C)[C@@H](c5ccc(=O)oc5)[C@@H](Cl)C[C@]4(O)C3=CC[C@@H]12 | 0.0081 µM | 0.0304 µM | 0.0046 µM | 0.00885 µM | 0.00899 µM | 0.0492 µM | 0.00517 µM | 0.0148 µM | 0.00301 µM | 0.00621 µM | 0.00502 µM | 0.0111 µM | 0.00442 µM | 0.00848 µM | 0.00458 µM | 0.00903 µM | 0.00293 µM | 0.0136 µM | 0.00635 µM | 0.0175 µM |
| Oc1ccc(Cl)cc1-c1cc(-c2ccc(F)cc2)n[nH]1 | 2.08 µM | 5.95 µM | 1.51 µM | 3.55 µM | 1.19 µM | 4.35 µM | 1.96 µM | 8.81 µM | 2.66 µM | 11.4 µM | 2.16 µM | 5.24 µM | 2.1 µM | 4.51 µM | 1.93 µM | 5.55 µM | 2.61 µM | 13.3 µM | 1.6 µM | 38.8 µM |
| N=C(N)SCCc1ccccn1 | – | > 100 µM | – | > 100 µM | – | > 100 µM | – | > 100 µM | – | > 100 µM | – | > 100 µM | – | > 100 µM | – | > 100 µM | – | > 100 µM | – | > 100 µM |
| O=[N+]([O-])c1cc(F)c2cccnc2c1O | 10.6 µM | > 100 µM | 4.63 µM | > 100 µM | 25.8 µM | > 100 µM | 4.47 µM | > 100 µM | 6.21 µM | > 100 µM | 3.77 µM | 86.6 µM | 13.6 µM | > 100 µM | 16.5 µM | 73.7 µM | 22.1 µM | > 100 µM | 21.2 µM | > 100 µM |
| CCOC(=O)Cc1csc(NC(=O)COC(=O)c2ccc(OC)cc2)n1 | > 100 µM | > 100 µM | 11.1 µM | > 37.5 µM | > 78.3 µM | > 100 µM | 26.5 µM | > 100 µM | 16.6 µM | 40.9 µM | > 100 µM | > 100 µM | 19.3 µM | 37.7 µM | > 100 µM | > 100 µM | > 100 µM | > 100 µM | > 100 µM | > 100 µM |
| CC(C)(C)C(=O)OCc1nc2cc3c(cc2c(=O)[nH]1)CCC3=O | > 100 µM | > 100 µM | > 100 µM | > 100 µM | > 100 µM | > 100 µM | > 100 µM | > 100 µM | > 100 µM | > 100 µM | > 100 µM | > 100 µM | > 100 µM | > 100 µM | > 100 µM | > 100 µM | > 100 µM | > 100 µM | > 100 µM | > 100 µM |
